Results reported in patent US9474734B2, “Compounds for treating inflammation and pain” (Olatec Industries LLC, priority 2012, dated 2016).

Tested on: arachidonic acid-induced ear swelling
Experiment: topical arachidonic acid-induced ear swelling model in mice
Format: in vivo
Conditions: male ICR mice; topical application 30 min before and 15 min after arachidonic acid; measured at 90 minutes; indomethacin 14 mM (0.1 mg/20 μL), 3-(methylthio)propionitrile 375 mM (1.0 mg/20 μL)
Description: The test compounds, indomethacin (positive control), and vehicle were evaluated for anti-inflammatory activity in a topical arachidonic acid-induced ear swelling model in mice. Male ICR mice weighing 22±2 g were used and randomly divided; each group had 10 mice. Arachidonic Acid (0.5 mg in 20 μl of acetone:ethanol/1:1) was applied topically to the anterior and posterior surfaces of the right ear of each mice. Test substances and vehicle, as listed in Table 1 were similarly applied 30 min before and 15 min after arachidonic acid application. The thickness of the right ear and the left ear was measured and the difference calculated as an indication of the inflammation in the right ear. Ear swelling was measured by a Dyer model micrometer gauge at 60 and 90 minutes after arachidonic acid application as an index of inflammation. Percent inhibition was calculated according to the formula: Ic−It/Ic×100, where Ic and It refers to increase of ear thickness (mm) in control and treated mice, respectively. ANOVA and Dunnett's test were employed to ascertain significant difference between vehicle control and treated groups. Significance is set at P<0.05 level.

Compound | % Inhibition of ear swelling [%]
CSCCC#N [3-(methylthio)propionitrile] | 43
COc1ccc2c(c1)c(CC(=O)O)c(C)n2C(=O)c1ccc(Cl)cc1 [Indomethacin] | 53
